From ChEMBL document CHEMBL5528009, “Benzothiozinone derivatives with anti-tubercular Activity-Further side chain investigation” (Eur J Med Chem, 2024)
pIC50: −log10 of the molar value. In brackets after ≈: the same amount, converted by molar mass. Activity calls are given as the source filed them. The calls are words filed in the database; no cut-off is given here.

Experiments:
[1] = test system: Mycobacterium tuberculosis; assay: Antitubercular activity against Mycobacterium tuberculosis H37Rv (ATCC 25618) incubated for […] by MABA assay; type: functional
[2] = target: T1, Decaprenylphosphoryl-beta-D-ribose oxidase (Mycobacterium tuberculosis (strain ATCC 25618 / H37Rv)) (UniProt P9WJF1); assay: Time-dependent covalent inhibition of recombinant Mycobacterium tuberculosis DprE1 expressed in Escherichia coli by Amplex Red/peroxidase coupled assay
T1 sequence (whole entry): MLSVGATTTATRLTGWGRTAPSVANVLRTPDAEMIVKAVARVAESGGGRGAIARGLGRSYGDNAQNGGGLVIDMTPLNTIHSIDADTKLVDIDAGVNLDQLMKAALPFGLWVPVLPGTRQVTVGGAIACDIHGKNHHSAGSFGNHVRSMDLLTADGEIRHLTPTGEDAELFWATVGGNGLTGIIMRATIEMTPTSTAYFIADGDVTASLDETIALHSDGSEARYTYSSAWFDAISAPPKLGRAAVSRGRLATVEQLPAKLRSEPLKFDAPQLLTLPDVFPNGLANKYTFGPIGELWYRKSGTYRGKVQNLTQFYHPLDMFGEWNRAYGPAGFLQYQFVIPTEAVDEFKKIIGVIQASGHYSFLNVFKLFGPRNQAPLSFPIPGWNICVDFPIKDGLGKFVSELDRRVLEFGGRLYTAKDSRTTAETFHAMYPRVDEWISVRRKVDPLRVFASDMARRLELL

[3] = MRT in ICR mouse at 5 micromol/kg, iv measured after 24 hrs by LC-MS/MS analysis; type: ADME, organism-based; settings: in vivo, dose 5 µmol/kg
[4] = AUC (0 to 24 hrs) in ICR mouse at 25 micromol/kg, po by LC-MS/MS analysis; type: ADME, organism-based; settings: in vivo, dose 25 µmol/kg; for AUC: po
[5] = Volume of distribution at steady state in ICR mouse at 5 micromol/kg, iv measured after 24 hrs by LC-MS/MS analysis; type: ADME, organism-based; settings: in vivo, dose 5 µmol/kg, read-out: Vdss
[6] = Tmax in ICR mouse at 25 micromol/kg, po measured after 24 hrs by LC-MS/MS analysis; type: ADME, organism-based; settings: in vivo, dose 25 µmol/kg
[7] = Elimination half life in ICR mouse at 5 micromol/kg, iv measured after 24 hrs by LC-MS/MS analysis; type: ADME, organism-based; settings: in vivo, dose 5 µmol/kg, read-out: beta t1/2 (converted)
[8] = Protein binding in mouse plasma assessed as unbound fraction incubated for 24 hrs by equilibrium dialysis based LC/MS analysis; type: ADME, cell-free
[9] = MRT in ICR mouse at 25 micromol/kg, po measured after 24 hrs by LC-MS/MS analysis; type: ADME, organism-based; settings: in vivo, dose 25 µmol/kg
[10] = Oral bioavailability in ICR mouse at 25 micromol/kg measured after 24 hrs by LC-MS/MS analysis; type: ADME, organism-based; settings: in vivo; for F: po, 24 h, at 25 µmol/kg
[11] = Drug concentration in ICR mouse plasma at 5 micromol/kg, iv measured after 5 mins by LC-MS/MS analysis; type: ADME, organism-based; settings: dose 5 µmol/kg
[12] = Elimination half life in ICR mouse at 25 micromol/kg, po measured after 24 hrs by LC-MS/MS analysis; type: ADME, organism-based; settings: in vivo, dose 25 µmol/kg, read-out: beta t1/2 (converted)
[13] = AUC (0 to 8 hrs) in ICR mouse at 5 micromol/kg, iv by LC-MS/MS analysis; type: ADME, organism-based; settings: in vivo, dose 5 µmol/kg; for AUC: iv
[14] = Total plasma clearance in ICR mouse at 5 micromol/kg, iv measured after 24 hrs by LC-MS/MS analysis; type: ADME, organism-based; settings: dose 5 µmol/kg
[15] = Cmax in ICR mouse at 25 micromol/kg, po measured after 24 hrs by LC-MS/MS analysis; type: ADME, organism-based; settings: in vivo, dose 25 µmol/kg
[16] = Aqueous solubility of the compound in PBS buffer at pH 6.82 incubated for 4 hrs by HPLC analysis; type: physicochemical
[17] = target: T2, Decaprenylphosphoryl-beta-D-ribose oxidase (Mycobacterium tuberculosis (strain ATCC 25618 / H37Rv), UniProt P9WJF1); assay: Inhibition of recombinant Mycobacterium tuberculosis DprE1 expressed in Escherichia coli measured after 120 mins by Amplex Red/peroxidase coupled assay
T2 sequence (P9WJF1 whole entry): T1 sequence (whole entry)

[18] = Cytotoxicity against mouse hepatic stellate cells at 30 uM incubated for 48 hrs by CCK8 assay; type: toxicity, cell-based; settings: hepatic stellate cell
[19] = Metabolic stability in NADPH-fortified human liver microsomes assessed as CYP450-mediated stability incubated for 120 mins by LC/MS analysis; type: ADME, Microsome; settings: 2 h
HepG2 = assay: Cytotoxicity against human HepG2 cells at 30 uM incubated for 48 hrs by CCK8 assay; type: toxicity, cell-based; settings: hepg2, 48 h
[20] = Metabolic stability in NADPH-fortified mouse liver microsomes assessed as CYP450-mediated stability incubated for 120 mins by LC/MS analysis; type: ADME, Microsome; settings: 2 h
[21] = test system: Mycobacterium tuberculosis; assay: Antitubercular activity against Mycobacterium tuberculosis H37Rv infected in BALB/c mouse assessed as log reduction in colony formation in lung at 50 mg/kg, po administered for 6 weeks; type: functional

For `CN(C/C=C\c1ccccc1)c1nc(=O)c2cc(C(F)(F)F)cc([N+](=O)[O-])c2s1`, the MIC [1] was 0.045 µM (≈ 0.019 µg/mL) and the TDI [2] was “Active”.

Work on `CN(CC#Cc1ccc2c(c1)OCO2)c1nc(=O)c2cc(C(F)(F)F)cc([N+](=O)[O-])c2s1` yielded an MIC [1] of 0.145 µM (≈ 0.0672 µg/mL).

`CN1CCN(CC#CCN(C)c2nc(=O)c3cc(C(F)(F)F)cc([N+](=O)[O-])c3s2)CC1` gave an MIC [1] of 1.92 µM (≈ 0.876 µg/mL).

`O=c1nc(N2CCN(CC3CCCCC3)CC2)sc2c([N+](=O)[O-])cc(C(F)(F)F)cc12` [MACOZINONE] showed an MRT [3] of 1.42 h, an AUC [4] of 0.80339 µM·h and an MIC [1] of less than 0.0004 µM. The Vd [5] was 5.61 L/kg, the Tmax [6] was 0.38 h and the half-life [7] was 0.95 h. The Fu [8] was 0.46%, the MRT [9] was 2.44 h and the F [10] was 0.65%. It also gave a concentration at 5 min [11] of 1390 nM, a half-life [12] of 1.48 h and an AUC [13] of 1.18766 µM·h. For the same molecule, the clearance [14] was 65.5 mL/min/kg, the Cmax [15] was 472 nM and the solubility at 4 h [16] was 0.01 µg/mL (≈ 0.0219 µM).

In the case of `CN(C)Cc1ccc(C#CCN(C)c2nc(=O)c3cc(C(F)(F)F)cc([N+](=O)[O-])c3s2)cc1`, the MIC [1] was 0.47 µM (≈ 0.224 µg/mL).

In the case of `CN(CC#CC1CCCCC1)c1nc(=O)c2cc(C(F)(F)F)cc([N+](=O)[O-])c2s1`, the MIC [1] was 0.002 µM (≈ 0.000851 µg/mL), the TDI [2] was “Active” and the pIC50 [17] was 7.74.

Molecule `CN(CC#CCN1CCOCC1)c1nc(=O)c2cc(C(F)(F)F)cc([N+](=O)[O-])c2s1` has an MIC [1] of 0.106 µM (≈ 0.0469 µg/mL).

`CN(CC#Cc1ccccc1F)c1nc(=O)c2cc(C(F)(F)F)cc([N+](=O)[O-])c2s1` gave an MIC [1] of 0.011 µM (≈ 0.00481 µg/mL).

For `CN(CC#Cc1cscn1)c1nc(=O)c2cc(C(F)(F)F)cc([N+](=O)[O-])c2s1`, the MRT [3] was 1.05 h, the Activity [18] was “Non-Toxic” and the AUC [4] was 18.99661 µM·h. The MIC [1] was 0.028 µM (≈ 0.0119 µg/mL), the Stability [19] was “Stable” and the Vd [5] was 0.59 L/kg. It also gave a Tmax [6] of 1 h, a half-life [7] of 0.84 h and a Fu [8] of 0.65%. For the same molecule, the Activity (HepG2) was “Non-Toxic”, the Stability [20] was “Stable” and the MRT [9] was 7.17 h. For the same molecule, the F [10] was 37.13%, the concentration at 5 min [11] was 10300 nM and the half-life [12] was 4.77 h. It also gave an AUC [13] of 4.66345 µM·h, a clearance [14] of 8.5 mL/min/kg and a Cmax [15] of 2670 nM. It also gave a solubility at 4 h [16] of 12.8 µg/mL (≈ 30 µM) and an Activity [21] of roughly 2 log10CFU.

Work on `CN(CC#CCN1CCSC1)c1nc(=O)c2cc(C(F)(F)F)cc([N+](=O)[O-])c2s1` yielded an MIC [1] of 0.029 µM (≈ 0.0129 µg/mL).

With `COc1cccc(C#CCN(C)c2nc(=O)c3cc(C(F)(F)F)cc([N+](=O)[O-])c3s2)c1` the MIC [1] was 0.093 µM (≈ 0.0418 µg/mL).

In the case of `CN(CC#Cc1cccs1)c1nc(=O)c2cc(C(F)(F)F)cc([N+](=O)[O-])c2s1`, the MIC [1] was 0.014 µM (≈ 0.00596 µg/mL), the Stability [19] was “Stable” and the Stability [20] was “Stable”. The TDI [2] was “Active”.

`CN(CC#Cc1ccc(F)cc1)c1nc(=O)c2cc(C(F)(F)F)cc([N+](=O)[O-])c2s1` showed an MIC [1] of 0.013 µM (≈ 0.00569 µg/mL).

Molecule `CN1CCC(O)(C#CCN(C)c2nc(=O)c3cc(C(F)(F)F)cc([N+](=O)[O-])c3s2)CC1` has an MIC [1] of 16.9 µM (≈ 7.72 µg/mL).

`CN(CC#CC1CCCC1)c1nc(=O)c2cc(C(F)(F)F)cc([N+](=O)[O-])c2s1` showed an MIC [1] of 0.005 µM (≈ 0.00206 µg/mL).

Work on `CN(CC#Cc1ccc(F)cc1F)c1nc(=O)c2cc(C(F)(F)F)cc([N+](=O)[O-])c2s1` yielded an MIC [1] of 0.007 µM (≈ 0.00319 µg/mL).

With `C#CCN(C)c1nc(=O)c2cc(C(F)(F)F)cc([N+](=O)[O-])c2s1` the MIC [1] was 1.4 µM (≈ 0.479 µg/mL).

With `CN(C/C=C/C1CCCC1)c1nc(=O)c2cc(C(F)(F)F)cc([N+](=O)[O-])c2s1` the MIC [1] was 0.002 µM (≈ 0.000827 µg/mL).

`CN(CC#CCN1CC2(COC2)C1)c1nc(=O)c2cc(C(F)(F)F)cc([N+](=O)[O-])c2s1` showed an MIC [1] of 0.423 µM (≈ 0.192 µg/mL).

With `CN(C/C=C\C1CC1)c1nc(=O)c2cc(C(F)(F)F)cc([N+](=O)[O-])c2s1` the MIC [1] was 0.042 µM (≈ 0.0162 µg/mL).

In the case of `CN(CC#Cc1ccccc1)c1nc(=O)c2cc(C(F)(F)F)cc([N+](=O)[O-])c2s1`, the MRT [3] was 2.72 h, the Activity [18] was “Non-Toxic” and the AUC(0-t) ([4]; ICR) was 5.16 µM·h. For the same molecule, the MIC [1] was 0.007 µM (≈ 0.00294 µg/mL), the Stability [19] was “Stable” and the Vd [5] was 0.25 L/kg. For the same molecule, the Tmax [6] was 0.9 h, the half-life [7] was 1.77 h and the Fu [8] was 0.25%. For the same molecule, the Activity (HepG2) was “Non-Toxic”, the Stability [20] was “Stable” and the TDI [2] was “Active”. For the same molecule, the MRT [9] was 4.35 h, the bioavailability ([10]; ICR, 25 µmol/kg) was 4.49% and the concentration at 5 min [11] was 13500 nM. It also gave a half-life [12] of 2.95 h, an AUC(0-t) ([13]; ICR) of 23.2 µM·h and a clearance [14] of 1.5 mL/min/kg. For the same molecule, the Cmax [15] was 1290 nM, the solubility at 4 h [16] was 0.8 µg/mL (≈ 1.91 µM) and the pIC50 [17] was 7.64. It also gave an Activity [21] of less than 1 log10CFU.
